How the values were obtained:
[1] = target: T1, Large conductance calcium-activated potassium channel (Bos taurus) (UniProt Q28204+Q28067); experiment: Inhibition of large conductance calcium-activated potassium channel in bovine smooth muscle cells at 30 uM; format: functional, cell-based
[2] = target: T1, Large conductance calcium-activated potassium channel (Bos taurus); experiment: Inhibition of large conductance calcium-activated potassium channel in bovine smooth muscle cells at 10 uM; format: functional, cell-based

inhibition [1] [%]	inhibition [2] [%]	SMILES
73		Clc1ccc([C@@]2(Cn3ccnc3)OC[C@H](COc3ccccc3)O2)c(Cl)c1
40		O=C(OC[C@H]1CO[C@](Cn2ccnc2)(c2ccc(Cl)cc2Cl)O1)c1ccccc1
	80	Clc1ccc([C@@]2(Cn3ccnc3)OC[C@H](COc3ccc(N4CCCCC4)cc3)O2)c(Cl)c1
2		Cc1ccc(S(=O)(=O)OC[C@H]2CO[C@](Cn3ccnc3)(c3ccc(Cl)cc3Cl)O2)cc1
95		Clc1ccc([C@@]2(Cn3ccnc3)OC[C@H](COc3ccc(Br)cc3)O2)c(Cl)c1

From ChEMBL document CHEMBL1149459, “Partial structures of ketoconazole as modulators of the large conductance calcium-activated potassium channel (BK(Ca))” (Bioorg Med Chem Lett, 2006)
